± gives the standard deviation of the averaged measurements.
How the values were obtained:
Test in all cases: level (log10 ratio to DMSO vehicle control); higher = higher biomarker level / cell amount than vehicle control
Settings in all cases: in DMSO
[1] = compound: COC(=O)CCC(F)(F)C(F)(F)C(F)(F)C(F)(F)F [Methyl 2H,2H,3H,3H-perfluoroheptanoate]
Procedure: (§1)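 BioMAP Diversity Plus panel of 12 human primary cell co-culture systems (3C, 4H, LPS, SAg, BT, BF4T, BE3C, CASM3C, HDF3CGF, KF3CT, MyoF, Mphg). Compounds were added 1 h before stimulation and left for 24 h (MyoF 48 h; BT 72 h for soluble read-outs or 6 d for IgG). Biomarkers were read by ELISA, cytotoxicity by SRB, PBMC viability and proliferation by Alamar Blue. Each well value was divided by the mean of 8 DMSO control wells on the same plate and log10 transformed; duplicate blinded samples were tested at 4 concentrations.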

Perfluoro-1-iodohexane = compound: FC(F)(F)C(F)(F)C(F)(F)C(F)(F)C(F)(F)C(F)(F)I [Perfluoro-1-iodohexane]
Procedure: as §1

[2] = compound: FC(F)(F)C(F)(F)C(F)(F)C(F)(F)C(F)(F)CCI [1-Iodo-1H,1H,2H,2H-perfluoroheptane]
Procedure: as §1

Heptafluorobutyramide = compound: NC(=O)C(F)(F)C(F)(F)C(F)(F)F [Heptafluorobutyramide]
Procedure: as §1

[3] = compound: NCC(F)(F)C(F)(F)C(F)(F)C(F)(F)C(F)(F)C(F)(F)C(F)(F)F [1H,1H-Perfluorooctylamine]
Procedure: as §1

[4] = compound: O=C(O)C(F)(F)OC(F)(F)C(F)(F)OC(F)(F)F [Perfluoro-3,6-dioxaheptanoic acid]
Procedure: as §1

Row | Test System | level (log10) ([1]; 6700 nM) | level (log10) ([1]; 20000 nM) | level (log10) ([1]; 60000 nM) | level (log10) (Perfluoro-1-iodohexane; 6700 nM) | level (log10) (Perfluoro-1-iodohexane; 20000 nM) | level (log10) (Perfluoro-1-iodohexane; 60000 nM) | level (log10) ([2]; 6700 nM) | level (log10) ([2]; 20000 nM) | level (log10) ([2]; 60000 nM) | level (log10) (Heptafluorobutyramide; 6700 nM) | level (log10) (Heptafluorobutyramide; 20000 nM) | level (log10) (Heptafluorobutyramide; 60000 nM) | level (log10) ([3]; 6700 nM) | level (log10) ([3]; 20000 nM) | level (log10) ([3]; 60000 nM) | level (log10) ([4]; 6700 nM) | level (log10) ([4]; 20000 nM) | level (log10) ([4]; 60000 nM)
1 | 3C:CD87/uPAR | -0.028 ± 0.047 | -0.022 ± 0.072 | 0.0015 ± 0.077 | -0.0125 ± 0.032 | 0.004 ± 0.0071 | 0.0285 ± 0.0035 | -0.0105 ± 0.0092 | -0.0065 ± 0.0092 | 0.0045 ± 0.018 | -0.014 ± 0.082 | -0.0435 ± 0.07 | -0.0375 ± 0.066 | -0.009 ± 0.023 | -0.017 ± 0.025 | -0.006 ± 0.0057 | -0.0205 ± 0.00071 | -0.0015 ± 0.019 | -0.015 ± 0.028
2 | 3C:CXCL8/IL-8 | -0.021 ± 0.023 | -0.0045 ± 0.021 | 0.012 ± 0.03 | -0.014 ± 0.064 | -0.01 ± 0.065 | 0.0365 ± 0.079 | 0.011 ± 0.0085 | 0.0065 ± 0.016 | 0.051 ± 0.017 | 0.008 ± 0.0071 | -0.0035 ± 0.016 | 0.0105 ± 0.011 | -0.02 ± 0.0085 | -0.0125 ± 0.00071 | 0.0085 ± 0.046 | 0.0235 ± 0.012 | 0.002 ± 0.035 | 0.0825 ± 0.074
3 | 3C:CXCL9/MIG | -0.011 ± 0.011 | -0.0115 ± 0.012 | -0.0055 ± 0.015 | 0.0045 ± 0.025 | 0.007 ± 0.014 | 0.0075 ± 0.029 | -0.0035 ± 0.005 | -0.011 ± 0.0028 | -0.0075 ± 0.0064 | -0.004 ± 0.016 | -0.0115 ± 0.0064 | -0.0065 ± 0.0078 | 0.0025 ± 0.0021 | -0.021 ± 0.0042 | -0.0205 ± 0.005 | -0.012 ± 0.0042 | -0.0005 ± 0.019 | 0.0065 ± 0.005
4 | 3C:HLA-DR | -0.026 ± 0.0071 | 0.03 ± 0.027 | 0.0085 ± 0.032 | 0.0025 ± 0.0035 | -0.011 ± 0.0057 | -0.001 ± 0.017 | -0.001 ± 0.016 | 0.006 ± 0.0042 | -0.0035 ± 0.0064 | 0.005 ± 0.0099 | 0.008 ± 0.0057 | -0.007 ± 0.0028 | 0.004 ± 0.047 | 0.023 ± 0.057 | 0.023 ± 0.041 | -0.035 ± 0.033 | -0.0075 ± 0.0078 | -0.0115 ± 0.021
5 | 3C:Proliferation | -0.035 ± 0.0028 | -0.029 ± 0.018 | 0.018 ± 0.03 | -0.0215 ± 0.0064 | -0.0205 ± 0.013 | -0.041 ± 0.041 | 0.001 ± 0.027 | -0.0465 ± 0.03 | -0.163 ± 0.052 | 0.006 ± 0.04 | 0.003 ± 0.051 | -0.006 ± 0.045 | 0.004 ± 0.05 | 0.004 ± 0.047 | -0.0485 ± 0.063 | -0.0305 ± 0.025 | -0.031 ± 0.05 | -0.0205 ± 0.0064
6 | 3C:SRB | 0.0125 ± 0.036 | 0.0085 ± 0.028 | -0.004 ± 0.016 | -0.0035 ± 0.00071 | -0.0155 ± 0.00071 | -0.0155 ± 0.0021 | 0.006 ± 0.013 | -0.019 ± 0.0042 | -0.0175 ± 0.013 | -0.0235 ± 0.04 | -0.0095 ± 0.0078 | -0.007 ± 0.024 | 0.0005 ± 0.0035 | 0.002 ± 0.0071 | 0.0045 ± 0.046 | -0.01 ± 0.0071 | -0.022 ± 0.0057 | -0.008 ± 0.0042
7 | 4H:CCL2/MCP-1 | -0.048 ± 0.033 | -0.0435 ± 0.025 | 0.0125 ± 0.023 | 0.0085 ± 0.015 | -0.008 ± 0.0028 | 0.0145 ± 0.029 | 0.005 | -0.0045 ± 0.029 | 0.0325 ± 0.035 | -0.026 ± 0.013 | -0.0325 ± 0.022 | 0.004 ± 0.095 | 0.0075 ± 0.028 | -0.0195 ± 0.018 | 0.01 ± 0.044 | -0.0265 ± 0.037 | -0.0345 ± 0.018 | 0.031 ± 0.0085
8 | 4H:CCL26/Eotaxin-3 | -0.0075 ± 0.0064 | 0.0175 ± 0.0078 | 0.0025 ± 0.005 | 0.014 ± 0.013 | 0.016 ± 0.017 | 0.016 ± 0.021 | 0.007 ± 0.017 | 0 ± 0.014 | -0.009 | 0.0315 ± 0.021 | 0.0345 ± 0.0035 | 0.0185 ± 0.019 | 0.0225 ± 0.022 | 0.008 ± 0.0014 | 0.028 ± 0.023 | -0.0115 ± 0.016 | 0.0075 ± 0.0064 | -0.024 ± 0.03
9 | 4H:CD62P/P-selectin | -0.0325 ± 0.071 | -0.017 ± 0.064 | 0.0135 ± 0.053 | 0.034 ± 0.028 | -0.012 ± 0.11 | 0.0625 ± 0.14 | 0.028 ± 0.075 | 0.049 ± 0.033 | -0.0635 ± 0.044 | 0.002 ± 0.0099 | 0.049 ± 0.034 | 0.015 ± 0.02 | 0.0025 ± 0.019 | -0.028 ± 0.021 | -0.0525 ± 0.047 | -0.0245 ± 0.061 | 0.0025 ± 0.0092 | -0.0185 ± 0.018
10 | 4H:CD87/uPAR | 0.0005 ± 0.019 | 0.021 ± 0.042 | 0.0065 ± 0.033 | -0.0035 ± 0.053 | 0.017 ± 0.062 | 0.036 ± 0.12 | 0.0265 ± 0.018 | 0.0175 ± 0.005 | 0.025 ± 0.03 | 0.048 ± 0.014 | 0.031 ± 0.0014 | 0.0315 ± 0.0092 | -0.0235 ± 0.023 | -0.0215 ± 0.033 | 0.003 ± 0.014 | -0.0205 ± 0.023 | -0.019 ± 0.011 | -0.019 ± 0.018
11 | 4H:CD106/VCAM-1 | -0.021 ± 0.0071 | 0.01 ± 0.035 | 0.011 ± 0.013 | 0.013 ± 0.03 | 0.01 ± 0.034 | 0.014 ± 0.068 | 0.006 ± 0.051 | 0 ± 0.028 | -0.0205 ± 0.026 | -0.004 ± 0.021 | -0.014 ± 0.025 | -0.0155 ± 0.015 | 0 ± 0.023 | -0.041 ± 0.027 | -0.034 ± 0.0085 | -0.0245 ± 0.0092 | 0.001 ± 0.034 | -0.0215 ± 0.021
12 | 4H:SRB | 0.0075 ± 0.022 | 0.006 ± 0.0057 | -0.017 ± 0.0099 | -0.0065 ± 0.011 | -0.008 ± 0.0042 | -0.0105 ± 0.0035 | -0.004 ± 0.0057 | -0.01 ± 0.0057 | -0.008 ± 0.013 | -0.0275 ± 0.026 | -0.0165 ± 0.0035 | -0.006 ± 0.018 | -0.003 ± 0.0042 | 0.0005 ± 0.011 | 0.003 ± 0.042 | 0.009 ± 0.0042 | 0.0085 ± 0.0035 | 0 ± 0.0042
13 | 4H:VEGFR2 | 0.0325 ± 0.013 | 0.0435 ± 0.03 | 0.0495 ± 0.069 | 0.0075 ± 0.0092 | 0.006 ± 0.02 | 0.004 ± 0.023 | 0.002 ± 0.047 | -0.004 ± 0.017 | 0.0155 ± 0.0021 | 0.018 ± 0.024 | 0.01 | 0.0075 ± 0.029 | 0.0225 ± 0.015 | -0.012 ± 0.0042 | -0.017 ± 0.0085 | -0.035 ± 0.0099 | -0.009 ± 0.048 | -0.013 ± 0.0071
14 | BE3C:CD54/ICAM-1 | -0.0075 ± 0.0092 | 0.0105 ± 0.018 | 0.002 ± 0.011 | -0.006 ± 0.0014 | -0.0125 ± 0.015 | -0.005 ± 0.014 | 0 ± 0.013 | -0.016 ± 0.011 | 0.006 ± 0.02 | -0.0195 ± 0.019 | 0.002 ± 0.0014 | 0.0035 ± 0.015 | 0.009 ± 0.0099 | -0.0045 ± 0.012 | 0.017 ± 0.034 | -0.032 ± 0.0042 | -0.0125 ± 0.0021 | -0.0325 ± 0.015
15 | BE3C:CD87/uPAR | -0.003 ± 0.0014 | -0.0005 ± 0.00071 | -0.0185 ± 0.022 | 0.0165 ± 0.018 | 0.0035 ± 0.00071 | 0.0465 ± 0.026 | 0.006 ± 0.02 | 0.002 ± 0.0057 | 0.027 ± 0.0042 | 0.043 ± 0.04 | 0.0155 ± 0.016 | -0.019 ± 0.017 | 0.0025 ± 0.0021 | -0.0035 ± 0.012 | 0.008 ± 0.0099 | 0.0055 ± 0.021 | 0.0075 ± 0.0021 | -0.0045 ± 0.015
16 | BE3C:CXCL8/IL-8 | 0.032 ± 0.044 | 0.002 ± 0.057 | 0.0295 ± 0.053 | 0.011 ± 0.033 | 0.021 ± 0.028 | 0.052 ± 0.033 | 0.0285 ± 0.037 | 0.0605 ± 0.023 | 0.086 ± 0.024 | 0.038 ± 0.0014 | 0.0365 ± 0.012 | 0.038 ± 0.051 | -0.017 ± 0.023 | -0.0075 ± 0.025 | -0.005 ± 0.013 | -0.041 ± 0.033 | -0.007 ± 0.011 | -0.0155 ± 0.05
